What was measured:
Assay in all cases: cells
Parameters in all cases: species or system panel of human cancer cell lines; Eurofins OncoPanel proliferation; nuclei count by high-content fluorescence imaging, 10-point dose response
SW954 = settings: Homo sapiens, SW 954, 72 h, cell count, 3 days
Procedure, shortened: (§1)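 Cells in RPMI 1640/10% FBS or special medium received compound the day after seeding, with a time-zero plate; 3-day incubation at 37°C, 5% CO2. Nuclei imaged by fluorescence microscopy; 10 half-log doses from 100 μM, 0.1% DMSO. EC50, IC50, GI50 and activity area (0–10) from curve fits.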

HT = settings: Homo sapiens, HT, 72 h, cell count, 3 days
Procedure, shortened: as §1

HCT-15 = settings: Homo sapiens, HCT-15, 72 h, cell count, 3 days
Procedure, shortened: as §1

A388 = settings: 72 h, cell count, 3 days
Procedure, shortened: as §1

SW48 = settings: Homo sapiens, SW48, 72 h, cell count, 3 days
Procedure, shortened: as §1

OE19 = settings: Homo sapiens, OE19, 72 h, cell count, 3 days
Procedure, shortened: as §1

KLE = settings: Homo sapiens, KLE, 72 h, cell count, 3 days
Procedure, shortened: as §1

HT-3 = settings: Homo sapiens, HT-3, 72 h, cell count, 3 days
Procedure, shortened: as §1

Daoy = settings: Homo sapiens, Daoy, 72 h, cell count, 3 days
Procedure, shortened: as §1

C32TG = settings: C32TG, 72 h, cell count, 3 days
Procedure, shortened: as §1

BCP-1 = settings: BCP-1, 72 h, cell count, 3 days
Procedure, shortened: as §1

LS-174T = settings: Homo sapiens, LS174T, 72 h, cell count, 3 days
Procedure, shortened: as §1

NCI-H295R = settings: Homo sapiens, NCI-H295R, 72 h, cell count, 3 days
Procedure, shortened: as §1

PSN-1 = settings: Homo sapiens, PSN1, 72 h, cell count, 3 days
Procedure, shortened: as §1

[1] = 50% of maximum possible response

Question: `C[C@@H]1CC(=O)NN=C1c1ccc(NN=C(C#N)C#N)cc1` [levosimendan] was tested. Which IC50 (SW954; [1]) did it give?
Answer: The IC50 was 22.5 µM.

Question: What about the GI50 (SW954; corrected for time zero) of the same compound?
Answer: Its GI50 is 20.5 µM.

Question: What about the EC50 (SW954; curve inflection point) of the same compound?
Answer: The EC50 was 22 µM.

Question: And the IC50 (HT; [1])?
Answer: The IC50 was 69.4 µM.

Question: What about the GI50 (HT; corrected for time zero) of the same compound?
Answer: The GI50 was 56.9 µM.

Question: And the EC50 (HT; curve inflection point)?
Answer: Its EC50 is 69.4 µM.

Question: And the IC50 (HCT-15; [1])?
Answer: Its IC50 is 32.1 µM.

Question: What about the GI50 (HCT-15; corrected for time zero) of the same compound?
Answer: The GI50 was 31 µM.

Question: What about the EC50 (HCT-15; curve inflection point) of the same compound?
Answer: Its EC50 is 30.8 µM.

Question: What about the IC50 (A388; [1]) of the same compound?
Answer: The IC50 was 61.1 µM.

Question: And the GI50 (A388; corrected for time zero)?
Answer: Its GI50 is 48.4 µM.

Question: What about the EC50 (A388; curve inflection point) of the same compound?
Answer: Its EC50 is 61.1 µM.

Question: And the IC50 (SW48; [1])?
Answer: Its IC50 is 13.5 µM.

Question: And the GI50 (SW48; corrected for time zero)?
Answer: The GI50 was 9.81 µM.

Question: What about the EC50 (SW48; curve inflection point) of the same compound?
Answer: Its EC50 is 13.5 µM.

Question: And the IC50 (OE19; [1])?
Answer: The IC50 was > 100 µM.

Question: And the GI50 (OE19; corrected for time zero)?
Answer: Its GI50 is 96.8 µM.

Question: What about the EC50 (OE19; curve inflection point) of the same compound?
Answer: The EC50 was > 100 µM.

Question: And the IC50 (KLE; [1])?
Answer: The IC50 was 85.4 µM.

Question: What about the GI50 (KLE; corrected for time zero) of the same compound?
Answer: Its GI50 is 20.8 µM.

Question: And the EC50 (KLE; curve inflection point)?
Answer: The EC50 was 29.6 µM.

Question: And the IC50 (HT-3; [1])?
Answer: Its IC50 is 91.3 µM.

Question: What about the GI50 (HT-3; corrected for time zero) of the same compound?
Answer: The GI50 was 48.5 µM.

Question: And the EC50 (HT-3; curve inflection point)?
Answer: Its EC50 is 91.3 µM.

Question: What about the IC50 (Daoy; [1]) of the same compound?
Answer: Its IC50 is 16.7 µM.

Question: What about the GI50 (Daoy; corrected for time zero) of the same compound?
Answer: Its GI50 is 13 µM.

Question: What about the EC50 (Daoy; curve inflection point) of the same compound?
Answer: The EC50 was 16.7 µM.

Question: And the IC50 (C32TG; [1])?
Answer: Its IC50 is 36.9 µM.

Question: And the GI50 (C32TG; corrected for time zero)?
Answer: The GI50 was 23.4 µM.

Question: What about the EC50 (C32TG; curve inflection point) of the same compound?
Answer: Its EC50 is 36.9 µM.

Question: And the IC50 (BCP-1; [1])?
Answer: The IC50 was 12.6 µM.

Question: What about the GI50 (BCP-1; corrected for time zero) of the same compound?
Answer: The GI50 was 8.13 µM.

Question: What about the EC50 (BCP-1; curve inflection point) of the same compound?
Answer: The EC50 was 12.6 µM.

Question: And the IC50 (LS-174T; [1])?
Answer: Its IC50 is > 100 µM.

Question: And the GI50 (LS-174T; corrected for time zero)?
Answer: The GI50 was > 100 µM.

Question: What about the EC50 (LS-174T; curve inflection point) of the same compound?
Answer: Its EC50 is > 100 µM.

Question: And the IC50 (NCI-H295R; [1])?
Answer: The IC50 was 91.6 µM.

Question: What about the GI50 (NCI-H295R; corrected for time zero) of the same compound?
Answer: The GI50 was 57.1 µM.

Question: And the EC50 (NCI-H295R; curve inflection point)?
Answer: Its EC50 is 91.6 µM.

Question: What about the IC50 (PSN-1; [1]) of the same compound?
Answer: Its IC50 is 12.8 µM.

Question: And the GI50 (PSN-1; corrected for time zero)?
Answer: The GI50 was 11.6 µM.

Question: And the EC50 (PSN-1; curve inflection point)?
Answer: Its EC50 is 11.8 µM.

From paper PMC6576746, “Rational discovery of dual-indication multi-target PDE/Kinase inhibitor for precision anti-cancer therapy using structural systems pharmacology” (PLoS Computational Biology, 2019)
